In article PMC8911630, “New Pharmacological Strategies against Pancreatic Adenocarcinoma: The Multifunctional Thiosemicarbazone FA4” (Molecules, 2022):
Read-outs that look alike come from different tables or passages of the source.

Columns and labels:
PANC-1 cell line [1] = test: Cytotoxicity in PANC-1 cell line; assay type: cell-based, human
σ1 receptor = σ1 receptor (Cavia porcellus, UniProt Q60492); test: σ1 receptor radioligand binding assay; conditions: mean of n ≥ 3 separate experiments in duplicate, read-out: Ki ± SD σ1
Description: (§1) The compounds underwent radioligand binding assays on σ1 and σ2 receptors, according to the previously adopted protocols.
(§2) σ1 and σ2 receptor binding were carried out following Matsumoto et al.. […] All the procedures for the binding assays were described previously by Abate and collaborators.

[2] = tested on: hepatocarcinoma HepG2 cells; test: Cytotoxicity in HepG2 cells; assay type: cell-based; conditions: Homo sapiens
Description: (§3) On the other hand, the data also confirmed the need for a strategy with a greater impact on pancreatic tumors. From this perspective, the multitarget FA4 appeared to be a promising candidate and was selected to be further investigated in the primary PDAC cell cultures of the present study.
(§4) Previous experiments were performed with human pancreas cancer cell lines PANC-1 (CRL-1469™), MiaPaCa2 (CRL-1420™), BxPC-3 (CRL-1687™), PANC-02.03 (CRL-2553™), AsPC-1 (CRL-1682™), human A549 lung cancer cells (CRM-CCL-185™), human MCF7 adenocarcinoma breast cells (HTB-22™), and human HepG2 hepatocarcinoma cells (HB-8065™), obtained from ATCC. PANC-1, MiaPaCa2, BxPC-3, PANC-02.03, AsPC-1, and MCF7cells were cultured in DMEM with heat inactivated 10% FBS, penicillin ([…]), and streptomycin ([…]). HepG2 cells were cultured in MEM supplemented with 10% (v/v) heat inactivated FPS, 1% (v/v) glutamine, 1% (v/v) penicillin, and streptomycin, 1% (v/v) NEAA. A549 cells were grown in HAM’S F12 supplemented with 10% heat inactivated FBS, 2 mM glutamine, 100 U mL^−1 penicillin, and 100 μg/mL streptomycin. All these cells were kept at 37 °C in a humidified incubator under an atmosphere of 5% CO2 in 75 cm^2 tissue culture flasks (Greiner Bio-One GmbH, Frickenhausen, Germany) and were harvested with trypsin-EDTA in their exponentially growing phase.

σ2 receptor = biological target: T1, σ2 receptor (Rattus norvegicus, UniProt Q5U3Y7); test: σ2 receptor radioligand binding assay
T1 sequence (Q5U3Y7 1-176): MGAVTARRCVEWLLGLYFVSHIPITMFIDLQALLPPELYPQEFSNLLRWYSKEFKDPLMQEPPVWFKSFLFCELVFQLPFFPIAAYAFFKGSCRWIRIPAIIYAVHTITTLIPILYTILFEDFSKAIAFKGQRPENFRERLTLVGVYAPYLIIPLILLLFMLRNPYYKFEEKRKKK
Description: as §1, §2

[3] = tested on: lung adenocarcinoma A549 cells; test: Cytotoxicity in A549 cells; assay type: cell-based; conditions: Homo sapiens
Description: as §3, §4

[4] = tested on: breast adenocarcinoma MCF7 cells; test: Cytotoxicity in MCF7 cells; assay type: cell-based; conditions: Homo sapiens
Description: as §3, §4

PDAC-2 cells [5] = test: cells; conditions: Homo sapiens, PDAC-2, 72 h, read-out: Cytotoxicity IC50 ± SD
Description: (§9) Human pancreatic adenocarcinoma primary cultures (PDAC1 and PDAC2) were cultured in RPMI + 10 % New Born Calf Serum + 1% Penicillin/ Streptomycin and maintained in standard conditions for <20 passages. Cells were routinely tested for Mycoplasma spp. and were free of contamination.
(§10) Cells were seeded in 96-well flat-bottom plates at a density of 3000/well, using both a control plate and an experimental plate. After 24 h, the control plate was fixed with cold 50% trichloroacetic acid, and the incubation with the compound of interest was performed in the experimental plate. After 72 h of incubation, the experimental plate was also fixed. Subsequently, both plates were washed and stained with the SRB solution, and after vigorous washing and drying, the bound dye was extracted from the cells with an alkaline solution. The absorption of SRB was measured spectrophotometrically at a wavelength of 490 nm and 540 nm. […] Thus, cell growth inhibition was calculated as the percentage versus vehicle-treated cells (“negative control”) OD (corrected for OD of the control plate before drug addiction). Finally, the half maximal inhibitory concentration (IC50) was calculated by nonlinear least squares curve fitting (GraphPad Prism 7, Intuitive Software for Science, San Diego, CA, USA), as described previously [33]. […]

[6] = Sulforhodamine B (SRB) assay, Hs27; assay type: cell-based, human; conditions: human, normal skin fibroblast Hs27 cells; Hs27 nontransformed cells, SRB, 72 h; read-out: Cytotoxicity IC50 ± SD
Description: (§11) Cells were seeded in 96-well flat-bottom plates at a density of 3000/well, using both a control plate and an experimental plate. After 24 h, the control plate was fixed with cold 50% trichloroacetic acid, and the incubation with the compound of interest was performed in the experimental plate. After 72 h of incubation, the experimental plate was also fixed. Subsequently, both plates were washed and stained with the SRB solution, and after vigorous washing and drying, the bound dye was extracted from the cells with an alkaline solution. The absorption of SRB was measured spectrophotometrically at a wavelength of 490 nm and 540 nm. The intensity of the signal is proportional to the number of living cells and, therefore, a measure of their proliferation. Thus, cell growth inhibition was calculated as the percentage versus vehicle-treated cells (“negative control”) OD (corrected for OD of the control plate before drug addiction). Finally, the half maximal inhibitory concentration (IC50) was calculated by nonlinear least squares curve fitting (GraphPad Prism 7, Intuitive Software for Science, San Diego, CA, USA), as described previously [33]. The SRB assay was performed in technical and biological triplicates.

[7] = tested on: normal fibroblast Hs27 cells; test: Sulforhodamine B (SRB) assay, Hs27; assay type: cell-based, human; conditions: Hs27 cells vs PDAC tumor cells
Description: as §11

[8] = Sulforhodamine B (SRB) assay, HPDE; assay type: cell-based, human; conditions: human; HPDE nontransformed cells, SRB, 72 h; read-out: Cytotoxicity IC50 ± SD
Description: as §11

normal HPDE cells = test: Sulforhodamine B (SRB) assay, HPDE; assay type: cell-based, human; conditions: HPDE cells vs PDAC tumor cells
Description: as §11

PDAC-1 cells [9] = test: Scratch wound-healing migration assay, PDAC-1; assay type: cell-based, human; conditions: PDAC-1, FA4 10 µM, 24 h
Description: (§5) Cancer cell migration is a key factor contributing to the aggressiveness of PDAC. It is therefore important to find new compounds that can counteract or stop this process. To evaluate the effect of FA4 on cell migratory properties, a migration assay was performed by incubating cells for 24 h with FA4.
(§6) Cells were seeded into 96-well plates 72 h before the assay at a density of 5 × 10^4 /well and allowed to attach and to become confluent. Subsequently, a scratch was performed in every well with a 96-pin scratcher, allowing the formation of uniform scratches. Immediately after this passage, cells were cultured for 24 h in complete medium with the drug of interest for experimental wells or without any drug for the control wells. Pictures were taken with an optical microscope at different time points (0, 6, and 24 h) and analyzed with the Scratch Assay 6.2 software (Digital Cell Imaging Labs, Keerbergen, Belgium). The migration assay was performed in technical and biological triplicates, as reported previously.

PDAC-1 cells [10] = test: Apoptosis assay (annexinV-FITC), PDAC-1; assay type: cell-based, human
Description: (§7) Previous studies reported that the modulation of σ2 receptor activity contributes to the initiation of the apoptotic process. Therefore, we evaluated the effect of FA4 on the induction of apoptosis in the PDAC primary cultures. To this aim, we measured the externalization of the plasma membrane phosphatidylserine, a reliable marker of cell apoptosis, which was quantified by the measurement of the fluorescence of annexin-V by spectrophotometric assay and microscopy. After 24 h of treatment with 10 μM FA4, a significant increase in the portion of apoptotic cells was observed compared to untreated control cells. The highest apoptotic index was measured in the PDAC-2 cells (17.6 ± 3.6, compared to 15.5 ± 4.9 in the PDAC-1 cells).
(§8) Cells were seeded in 96-well plates (5 × 10^3 cells/well), and after 24 h, the cells were fixed with 4% paraformaldehyde in PBS for 30 min, then washed twice with PBS and stained with annexinV-FITC in binding buffer (10 mM HEPES/NaOH pH 7.4, 140 mM NaCl, and 2.5 mM CaCl2) for 10 min in the dark at room temperature. Lastly, cells were washed with the assay binding buffer solution, and fluorescence was measured by using a multimode plate reader with excitation and emission filters at 485 nm and 535 nm, respectively, to determine the apoptotic index. […]

PDAC-1 cells [11] = test: cells; conditions: Homo sapiens, 72 h, read-out: Cytotoxicity IC50 ± SD
Description: as §9, §10

PDAC-2 cells [12] = test: Scratch wound-healing migration assay, PDAC-2; assay type: cell-based, human; conditions: PDAC-2, FA4 10 µM, 24 h
Description: as §5, §6

PDAC-2 cells [13] = test: Apoptosis assay (annexinV-FITC), PDAC-2; assay type: cell-based, human
Description: as §7, §8

PANC-1 cell line [14] = tested on: PANC-1 cell line; parameters: method as in PMID 34586588; conditions: read-out: Cytotoxicity IC50 ± SD PANC-1; cited from earlier work
PDAC xenografts = tested on: PDAC xenografts; parameters: method as in PMID 34586588; conditions: cited from earlier work
[15] = tested on: pancreatic ductal adenocarcinoma (PDAC) primary cell cultures; test: Antiproliferative activity on PDAC primary cell cultures (both cultures together); assay type: cell-based; conditions: Homo sapiens; range over PDAC primary cell cultures; read-out: half maximal inhibitory concentration (IC50)
Source text: A new sigma-2 (σ2) receptor ligand (FA4) was efficiently synthesized and evaluated for cytotoxic, proapoptotic, and antimigratory activity on pancreatic ductal adenocarcinoma (PDAC) primary cell cultures, which restrained the aggressive and chemoresistant behavior of PDAC. […] The cytotoxic activity was associated with induction of apoptosis, resulting in apoptotic indexes higher than those observed after exposure to a clinically relevant concentration of the gemcitabine, the first-line drug used against PDAC.

[16] = Homo sapiens, PANC-1, read-out: Cytotoxicity IC50 ± SD PANC-1

σ1 receptor, sequence (Q60492 whole entry): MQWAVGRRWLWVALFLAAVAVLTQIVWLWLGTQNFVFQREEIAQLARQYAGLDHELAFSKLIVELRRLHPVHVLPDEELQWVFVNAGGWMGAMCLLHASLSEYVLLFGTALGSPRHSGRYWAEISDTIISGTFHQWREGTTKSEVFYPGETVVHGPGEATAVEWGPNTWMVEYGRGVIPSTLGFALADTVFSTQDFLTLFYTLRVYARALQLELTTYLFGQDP

For `Fc1ccc(-n2cc(CCCCN3CCC4(CC3)OCc3ccccc34)c3ccccc32)cc1` [Siramesine], the IC50 (PANC-1 cell line [1]; Homo sapiens, PANC-1 cell line, read-out: Cytotoxicity IC50 ± SD PANC-1) was > 50 µM.

Molecule `c1ccc2c(c1)COC21CCN(CCCCn2ccc3ccccc32)CC1` [MT8, 1’-(4-(1H-indol-1-yl)butyl)-3H-spiro[isobenzofuran-1,4’-piperidine]] has a Ki (σ1 receptor) of 27.3 ± 2.6 nM, an IC50 [2] of 3.2 µM and a Ki (σ2 receptor) of 0.43 ± 0.1 nM. The IC50 [3] was 4.29 µM, the IC50 [4] was 6.02 µM and the “cytotoxic potency relative to FA4” value (PANC-1 cell line [1]) was “six-fold less potent than FA4”. For the same molecule, the IC50 (PANC-1 cell line [1]; [16]) was 19.1 ± 1.3 µM.

With `Cc1ccccc1N=C(N)Nc1ccccc1C` [DTG] the IC50 (PANC-1 cell line [1]; PANC-1 cell line, read-out: Cytotoxicity IC50 ± SD PANC-1) was > 50 µM.

With `CN(C)C(=S)N/N=C1\C(=O)N(CCCCN2CCC3(CC2)OCc2ccccc23)c2ccccc21` [FA4] the IC50 (PDAC-2 cells [5]) was 701 ± 59 nM, the IC50 at 72 h [6] was 5.55 ± 0.333 µM and the “selectivity index (SI, IC50 non-tumor cells/IC50 tumor cells)” value [7] was 7. For the same molecule, the IC50 at 72 h [8] was 8.07 ± 0.302 µM, the “selectivity index (SI, IC50 non-tumor cells/IC50 tumor cells)” value (normal HPDE cells) was 11 and the migration rate (PDAC-1 cells [9]) was “significantly inhibit the migration rate”. The apoptotic index (PDAC-1 cells [10]; PDAC-1, 10 μM, 24 h, annexinV-FITC fold change compared to control cells) was 15.5 ± 4.9, the “percentages of apoptotic cells compared to gemcitabine at 10 μM” value (PDAC-1 cells [10]; PDAC-1, 24 h treatment) was “significantly higher” and the IC50 (PDAC-1 cells [11]) was 825 ± 6 nM. The migration rate (PDAC-2 cells [12]) was “significantly inhibit the migration rate”, the apoptotic index (PDAC-2 cells [13]; PDAC-2, 10 μM, 24 h, annexinV-FITC fold change compared to control cells) was 17.6 ± 3.6 and the “percentages of apoptotic cells compared to gemcitabine at 10 μM” value (PDAC-2 cells [13]; PDAC-2, 24 h treatment) was “significantly higher”. For the same molecule, the IC50 (PANC-1 cell line [14]) was 3.01 ± 0.9 µM, the “safety in PDAC xenografts” value (PDAC xenografts) was “safe” and the IC50 [15] was 701 to 825 nM.

With `CC(C)=CCN1CC[C@]2(C)c3cc(O)ccc3C[C@H]1[C@H]2C` [(+)-pentazocine] the IC50 (PANC-1 cell line [1]; [16]) was > 50 µM.
